Read-outs that look alike come from different tables or passages of the source.
Legend:
[1] = test system: cell-associated HIV-1; assay: hCD4+-Rag2-/-γc-/- mice infected with cell-associated HIV-1; assay type: in vivo
Method: Furthermore, the previous infections were initiated with cell-free HIV-1. […] Untransduced (GFP^−) CD4^+ cells from the same donor were cultured side by side and infected with CXCR4-tropic HIV-1 prior to infection of reconstituted mice. […] Peripheral blood was analyzed one, two, and three weeks after infection and mice were sacrificed three weeks after infection (FIG. 71A).

[2] = test system: HIV-1
Excerpt: CD4^+ T cells were enriched from PBMCs using MACS, and activated using irradiated allo-PBMC and IL-2. […] Cells were sorted based on GFP-expression and then challenged with replication-competent, CXCR4-tropic, HIV-1NL4-3. […] Cells were infected with HIV-1NL4-3, modified to be CCR5-tropic.
293T human embryonic kidney cells and CRFK feline kidney cells were maintained in DMEM supplemented with 10% fetal bovine serum (FBS) and glutamax (Invitrogen). […] CD4^+ T cells were enriched from PBMCs (>99% CD4^+) using positive selection magnetic beads (Miltenyi Biotec) and stimulated for 24 hrs on multisorb 96-well plates (Nunc) coated with 2 μg/ml anti-CD3 and 2 μg/ml anti-CD28 antibodies (BD Biosciences) in RPMI with 10% FBS, glutamax (Invitrogen) and 20 IU/ml hIL-2. When indicated and in preparation for adoptive transfer to mice, CD4^+ T cells were stimulated using allogeneic-PBMCs irradiated at 50 Gy in the presence of 20 IU/ml IL-2 and phytohemagglutinin (PHA) at 1 μg/ml. Cells were washed and replated 24 hrs prior to viral transduction. […]
2×10^4 adherent cells/well or 8×10^4 suspension cells/well were plated in 48-well plates (Nunc) for challenge with single-cycle GFP reporter vectors that were titered as indicated. GFP synthesis was assessed by flow cytometry 48 hrs post-infection. […] For infection of 10^6 primary CD4^+ T cells or macrophages, 15 ng p24/10^6 cells of a CXCR4- or CCR5-tropic HIV-1NL4-3 stock was used, and infection was monitored by assessing the accumulation of RT activity in the supernatant (Sayah et al., 2004). FACSCalibur, Cellquest Pro (Becton Dickinson), and FlowJo software (Treestar, Inc.) were used to record and analyze fluorescence. […]
CD4^+ T cells and monocyte-derived macrophages were infected with low passage derivatives of primary isolates HIV-1DH12 and HIV-1132W, respectively. […] Infection was monitored by assessing the accumulation of RT activity in the supernatant at the indicated day post-infection, at which point CD4^+ cells were split and macrophages were fed as required.

[3] = test system: HIV-1NL4-3; assay: HIV-1 challenge of CD4+ T cell cultures with <25% transduced cells; assay type: cell-based
Excerpt: These conditions would be more realistic of hT5Cyp therapy in patients. […] The survival advantage of CD4^+ T cell becomes apparent when analyzing the viability of the cells by forward versus side-scatter and gating on live lymphocytes; a method that had to be adopted since the cells were fixed in paraformaldehyde for flow cytometry analysis.

[4] = test system: HIV-1; conditions: of CD45^+GFP^+ cells
Excerpt: HIV-1 infection spreads from cell to cell at high titer in complex lymphoid tissues with a specific hierarchy of T cell destruction and distinct kinetics in vivo (Douek et al., 2003). […] This mouse model takes advantage of the lack of functional B, T, and NK cells in Rag2^−/−γc^−/− mice and allows for improved engraftment of xenografts as well de novo intrathymic generation of human T cells (Baenziger et al., 2008; Mazurier et al., 1999). Briefly, CD34^+ hematopoietic stem and progenitor cells are enriched from cord blood of healthy donors by MACS and transplanted intrahepatically into irradiated, newborn Rag2^−/−γc^−/− mice (FIG. 63A). 2-4 months post-transplant, reconstitution of peripheral blood is assessed by flow cytometry, and mice with more that 5% hCD45^+ cells in peripheral blood are infected intraperitoneally (i.p.) with HIV-1 (FIG. 63A).
An aliquot of cells was maintained in culture with the subsequent addition of SCF, TPO, and Flt3L, and assessed for GFP-expression 72 hours post-transduction.
huRag2^−/−γc^−/− mice were generated as previously described^1. Briefly, fresh human cord blood was obtained with parent written informed consent from healthy full-term newborns (Department of Gynecology and Obstetrics, Ospedale San Giovanni, Bellinzona). […] Traggiai, E., et al. Development of a human adaptive immune system in cord blood cell-transplanted mice. […]

“hT5Cyp: human TRIM5α fused at serine 322 to human cyclophilin A, SEQ ID NO:12” was tested, and the “p24^+ of total human T cells in the infected thymus” value ([1]; mouse, in vivo) was 0.9%, the “protection of total CD3^+ T cell numbers in the thymus” value ([1]; mouse, in vivo) was 3.7 fold and the “CD3^+ T cells in thymus” value ([1]; n=2) was 2×10^7. For the same substance, the “reduction in mean viral load vs hT5CypH126Q” value ([1]; one week post-infection) was 9.7 fold, the “CD4^+ T cell numbers relative to initial levels” value ([1]; peripheral blood, three weeks post-infection) was no less than 40% and the “p24^+ of GFP^hi cells” value ([1]; thymus) was “few”. For the same substance, the “p24^+ of GFP^neg/lo cells” value ([1]; thymus) was 3.2%, the “reduction in total numbers of GFP^− p24^+ cells vs hT5CypH126Q” value ([1]; thymus) was greater than 3.3 fold and the “reduction in mean viral load vs hT5CypH126Q” value ([1]; two weeks post-infection) was 4.3 fold. The establishment of infection ([2]; CCR5-tropic HIV-1NL4-3) was “infection is not established”, the establishment of infection ([2]; CXCR4-tropic HIV-1NL4-3) was “infection was not established” and the block to infection ([2]; primary isolate HIV-1DH12) was “The same hT5Cyp-mediated block to infection”. For the same substance, the “RT activity in the culture supernatant” value ([3]; mixed culture) was “significantly lower”, the “day of peak viral replication” value ([3]; mixed culture) was 28 days and the “transduced cells in the culture after HIV-1 infection” value ([3]; start <25% transduced) was 75%. The “Post-infection GFP^+ CD3” value [4] was 0%.

Source: patent US8835617B2, “Polynucleotides encoding a human TRIM-Cyp fusion polypeptide, compositions thereof, and methods of using same” (priority 2008, dated 2014)
